Measurements taken from patent US11229590B2, “Sunscreen formulation” (priority 2018, dated 2022).

Columns and labels:
[1] = 4-Methoxy-benzylamine formulation mice skin penetration test (plasma level by HPLC); assay type: in vivo; conditions: topical on mouse back
Protocol: Mice Test Procedures: • 1. […] The 12 mice were randomly divided into two groups. […] Add methanol and acetonitrile 200 μL, respectively. […] Precisely transfer the supernatant solution to another test tube. At 40° C. blow N2 through to dryness. […] Supernatant solution was used directly for HPLC analysis. • 4.

[2] = formulation containing 10%, daily 2 mg/cm^2 for a week, cited from earlier work
[3] = couples, samples 2005-2009; cited from earlier work
[4] = Californian females, 2007-2009; cited from earlier work
[5] = 2517 urine samples, 2003-2004; cited from earlier work
[6] = Urine samples collected 2007-2009 from Californian females; assay type: in vivo, human; conditions: from 22.9 ng/mL to 200 ng/mL
Protocol: Since the first day of sunscreen usage in 1930s, the exposure to sunscreen agents has begun. Initially, the scope and frequency of the sunscreen usage among the human population were very limited. Therefore, the levels of UV filters found in human samples were usually low. However, for the last 20 years, the situation changed dramatically. In one epidemiological study conducted in 2003-2004, 2517 urine samples from United States general population were analyzed for the presence of oxybenzone (benzophenone-3, bp-3), as part of the 2003-2004 National Health and Nutrition Examination Survey [A. M. Calafat, L. Y. Wong, X. YE, J. A. Reidy, L. L. Needham, Concentrations of the sunscreen agent benzophenone-3 in residents of the United States: National Health and nutrition Examination Survey 2003-2004, Environ. Health Perspect, 116 (2008) 893-897]. Oxybenzone was detected in 97% of the all samples with mean concentration of 22.9 ng/ml and 95th percentile concentration of 1040 ng/ml. As the data indicates, the sunscreen agent occurrences are wide spread. […] 543 (2016) 28-36]. […] About nine times higher than previously reported levels of oxybenzone (up to 13000 ng/ml, average around 200 ng/ml) were found in urine samples collected in 2007-2009 from Californian females, which is probably a result of specific demographics [C. […]

[7] = maternal urine, gestational weeks 6-30; cited from earlier work

## COc1ccc(CN)cc1 [4-methoxy-benzylamine]
[1]
  skin penetration in mice: could not penetrate the skin of mice

## Cc1ccc(C=C2C(=O)C3(C)CCC2C3(C)C)cc1 (stereo not drawn) [4-methylbenzylidene camphor]
[2]
  maximum plasma concentration, females: 20 ng/mL
  mean urine concentration, females: 5 ng/mL
  maximum plasma concentration, males: 20 ng/mL
  mean urine concentration, males: 7 ng/mL

## CCCCC(CC)COC(=O)C=Cc1ccc(OC)cc1 (stereo not drawn) [octyl methoxycinnamate]
[2]
  maximum plasma concentration, females: 10 ng/mL
  mean urine concentration, females: 5 ng/mL
  maximum plasma concentration, males: 2 ng/mL
  mean urine concentration, males: 8 ng/mL

## COc1ccc(C(=O)c2ccccc2)c(O)c1 [oxybenzone, 2-hydroxy-4-methoxybenzophenone]
[3]
  rank among urinary benzophenone-type UV filters in the study population: most predominant
[2]
  maximum plasma concentration, females: 200 ng/mL
  mean urine concentration, females: 60 ng/mL
  maximum plasma concentration, males: 300 ng/mL
  mean urine concentration, males: 140 ng/mL
[4]
  average level in urine samples: around 200 ng/ml
  highest level in urine samples: up to 13000 ng/ml
[5]
  95th percentile concentration in urine: 1040 ng/mL
  mean concentration in urine: 22.9 ng/mL
  share of urine samples in which detected: 97%
[6]
  increase of average concentration in urine sample compared to 2003-2004 study: more than 9 folds
[7]
  correlation of maternal urinary levels with overall weight and head circumference of the baby: positively correlated
